The text below walks through data of patent EP2716638A1, “Labeled ligands of the oxytocyn receptor” (Université de Strasbourg, priority 2012, dated 2014).

Where only a bound is given, the exact number is not on record here.

Assay [1] concerns cAMP accumulation. The assay can be described thus: cAMP accumulation functional assay (agonist and antagonist mode). The class given is cell-based.
The target of another assay is T1, V1aR (Homo sapiens, UniProt P37288).
T1 construct: expressed in transfected cells; host or cells: HEK 293T (printed for the general protocol, whose plasmid sentence names only the V2 receptor)
The assay can be described thus: TR-FRET (HTRF) saturation binding assay on SNAP-tag labeled receptor in cells. To be noted: saturation with fluorescent ligand; mean ± SEM of three independent experiments in triplicate; read-out: Binding, HTRF (Kd, nM) V1a. The method, then:
(§1) These assays were performed as described in Zwier et al (Journal of Biomolecular Screening 2010, 15, 1248-1259). Briefly, HEK 293T cells were cultivated in DMEM medium supplemented with 10% foetal calf serum (FCS) and 1% penicillin/streptomycin antibiotics. Confluent cells were dissociated and electroporated with plasmid DNA coding for the V2 receptor fused to the SNAP-tag suicide enzyme. Transfected cells were then plated in black 96-well plates previously coated with poly-ornithine (diluted at 0.1 mg.mL^-1 in sterile water, incubated 30 min at 37°C, washed with sterile PBS). Plates were incubated in supplemented DMEM medium for 48h à 37°C, […] and 5% CO2. Expressed receptors fused to SNAPtag were then labeled with fluorescent substrates, either with a donor (SNAP-Lumi4-Tb) or an acceptor (SNAP-RED) at respectively 100 or 300 nM in 100 µL of Tag-lite® labeling medium, for 1 h at 37 °C. Cells were then washed 3 times in Tag-lite medium and then incubated with the fluorescent ligands. For saturation assays, increasing concentrations of fluorescent ligands were diluted in 100 µL of Tag-lite medium. For competition assays, a fixed concentration of fluorescent ligand (typically 20 nM) was mixed with an increasing concentration of cold competitor ligand (in this case AVP) in Tag-lite medium. After overnight incubation at 4 °C (to prevent any internalization phenomenon), plates were read in an HTRF®-compatible multi-well plate reader with a classic HTRF® protocol (excitation at 340 nm, donor emission measured at 620 nm and acceptor emission at 665 nm, 50 µs delay, 500 µs integration).
(§2) Fluorescent compounds 21 to 24 were involved in the development of a TR-FRET based assay for both V1aR and OTR. Such technique usually offers a higher signal-to-noise ratio than classic FRET because of the long-lasting fluorescence of the lanthanide cryptate. TR-FRET based saturation experiments with fluorescent compounds 21 to 24 were performed on V1a, OT and V2 receptors labeled with the SNAP-tag® approach: cells expressing a receptor of interest fused to SNAP-tag are incubated in the presence of a fluorescent substrate to label the receptor. Cells were then incubated in the presence of increasing concentrations of a fluorescent ligand. Fluorophores of the SNAP-tag substrates and of the ligands are chosen to be compatible with time-resolved FRET. SNAP-tagged receptors were labeled either with a Lumi4-Tb donor (SNAP-Lumi4-Tb) or d2 acceptor (SNAP-red) depending on the nature of the ligands, either acceptor (21, 22) or donor (23, 24). Saturation curves were obtained when plotting specific FRET signal as a function of fluorescent compounds concentration; non-specific binding was determined in the presence of an excess of the unlabeled corresponding ligands (10 µM) (Figure 1).
(Time-resolved FRET reads energy transfer from a long-lived donor to a nearby acceptor.)

The target in the next assay is T2, OTR (Homo sapiens, UniProt P30559).
T2 construct: expressed in transfected cells; host or cells: HEK 293T (printed for the general protocol, whose plasmid sentence names only the V2 receptor)
T2 sequence (P30559 1-389): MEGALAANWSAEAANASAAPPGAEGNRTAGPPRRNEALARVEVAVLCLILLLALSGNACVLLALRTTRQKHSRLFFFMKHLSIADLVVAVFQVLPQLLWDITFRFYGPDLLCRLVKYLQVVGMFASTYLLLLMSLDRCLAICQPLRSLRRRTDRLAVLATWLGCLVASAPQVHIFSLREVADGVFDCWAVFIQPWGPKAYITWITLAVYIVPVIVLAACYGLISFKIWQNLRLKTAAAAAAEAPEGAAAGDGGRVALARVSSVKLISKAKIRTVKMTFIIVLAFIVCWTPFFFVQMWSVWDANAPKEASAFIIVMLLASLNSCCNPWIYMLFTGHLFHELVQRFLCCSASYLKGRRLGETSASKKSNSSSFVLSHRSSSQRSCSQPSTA
The assay is described as above. To be noted: saturation with fluorescent ligand; mean ± SEM of three independent experiments in triplicate; read-out: Binding, HTRF (Kd, nM) OT. The method, then: as §1, §2

The target in another assay is T3, V2 receptor (Homo sapiens, UniProt P30518).
T3 construct: expressed in transfected cells; host or cells: HEK 293T
Described as above. As to conditions: saturation with fluorescent ligand; mean ± SEM of three independent experiments in triplicate. The method, then: as §1, §2

The subject of assay [2] is cAMP accumulation. The assay can be described thus: cAMP accumulation functional assay (agonist and antagonist mode). The class given is cell-based. This is another data set of the same source. A general note: cAMP levels reflect the balance of adenylyl cyclase and phosphodiesterase activity.
Where [3] appears, read: cell incubation with fluorescent compound at a concentration of 100-fold Ki.

T3 sequence (P30518 whole entry): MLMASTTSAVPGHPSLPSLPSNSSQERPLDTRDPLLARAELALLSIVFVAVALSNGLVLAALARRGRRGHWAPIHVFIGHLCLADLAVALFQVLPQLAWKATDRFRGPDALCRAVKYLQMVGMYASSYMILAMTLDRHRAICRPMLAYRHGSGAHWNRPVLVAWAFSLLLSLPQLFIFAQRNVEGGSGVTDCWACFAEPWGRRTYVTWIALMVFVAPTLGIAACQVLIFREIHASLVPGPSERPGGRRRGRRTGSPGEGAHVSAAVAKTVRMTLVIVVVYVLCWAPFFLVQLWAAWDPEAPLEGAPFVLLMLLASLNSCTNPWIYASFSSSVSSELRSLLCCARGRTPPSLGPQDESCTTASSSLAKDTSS
T1 sequence (P37288 whole entry): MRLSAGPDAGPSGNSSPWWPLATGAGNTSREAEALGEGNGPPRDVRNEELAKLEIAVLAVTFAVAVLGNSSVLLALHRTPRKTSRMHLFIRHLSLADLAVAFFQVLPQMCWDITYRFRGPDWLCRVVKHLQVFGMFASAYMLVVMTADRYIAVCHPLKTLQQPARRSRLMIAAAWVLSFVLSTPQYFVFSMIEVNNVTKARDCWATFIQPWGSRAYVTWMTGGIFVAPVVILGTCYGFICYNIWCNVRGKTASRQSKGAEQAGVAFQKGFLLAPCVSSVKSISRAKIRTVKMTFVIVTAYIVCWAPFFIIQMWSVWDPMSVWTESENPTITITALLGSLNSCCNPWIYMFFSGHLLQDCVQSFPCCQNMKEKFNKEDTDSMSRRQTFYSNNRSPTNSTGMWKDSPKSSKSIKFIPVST

As to `CCN1C(=CC=CC=CC2=[N+](CC)c3ccc(S(=O)(=O)[O-])cc3C2(C)C)C(C)(CCCC(=O)NCCOCCN2CCN(CCCCCCOc3cccc(C)c3-n3c(C)nnc3-c3ccc(-c4ccccc4)cc3)CC2)c2cc(S(=O)(=O)O)ccc21` (stereo not shown) [Compound 21], the “cyclic adenosine monophosphate (cAMP) accumulation (intrinsic agonist activity)” value in the assay on cAMP accumulation [1] (setting [3]) is on record as “No significant increase in accumulation of second messengers”. In the assay with cAMP accumulation [1] (dose-dependent, antagonist mode), the “inhibition of AVP-induced cAMP accumulation” value is reported as “fully inhibited”. For the same compound, the Kd (commonly a measure of binding affinity in units of concentration) at V1aR was 6 ± 2 nM; at OTR, 7 ± 2 nM; on V2 receptor it was greater than 1000 nM.
Regarding `CCN1C(=CC=CC=CC2=[N+](CC)c3ccc(S(=O)(=O)[O-])cc3C2(C)C)C(C)(CCCC(=O)NCCOCCOCCOCCN2CCN(CCCCCCOc3cccc(C)c3-n3c(C)nnc3-c3ccc(-c4ccccc4)cc3)CC2)c2cc(S(=O)(=O)O)ccc21` (stereo not shown) [Compound 22], the Kd is 10 ± 2 nM on V1aR, 11 ± 2 nM on OTR and greater than 1000 nM at V2 receptor.
arginine vasopressin [AVP]: the EC50 in the assay with cAMP accumulation [2] (cAMP accumulation, agonist potency, read-out: Kact) came to 0.29 nM. For the same compound, the “cyclic adenosine monophosphate (cAMP) accumulation (intrinsic agonist activity)” value with cAMP accumulation [2] (setting [3]) is on record as “full agonist properties”.
